{"source": "patent US20230022796A1", "about": "(Merck Patent GmbH, priority 2019, published 2023)", "format_in_all_cases": "cell-based, Chinese hamster", "key": {"[1]": {"tested_on": "CHO cell line producing a fusion protein", "assay": "Glycosylation profile (UPLC-MS of released glycans) of fusion protein from fed-batch", "conditions": "400 μM additive, day 12", "experimental": "(§1) Glycosylation patterns were analyzed by ultra-performance liquid chromatography coupled to a mass spectrometer (UPLC-MS). The purified antibody was denaturated and the glycans were released from the antibody by digestion with peptide N-glycosidase F (PNGase F) followed by labeling the glycans with the GlycoWorks™ RapiFluor-MS™ N-Glycan Kit according to the manufacturer protocol. For the analysis, an UPLC glycan column (2.1×150 mm) that separated the glycans according to their […] was used. The chromatography was performed at 45° C. using 50 mM ammonium formate (A), pH 4.4 solution and an acetonitrile (B) gradient. In detail, at the beginning the ratio of A:B was 20:80 (0 min) and changed to 27:73 at 3 min and 37:63 at 35 min at a flow rate of 0.5 ml/min. From 36.5 min to 39.5 min only A was used as mobile phase and the flow rate was reduced to 0.2 ml/min. Subsequently, the ratio was changed to 20% A:80% B and the flowrate was increased to 0.5 ml/min at 43.1 min until the end of the process at 55 min. The detection was performed by a fluorescence detector with an excitation wavelength of 265 nm and an emission wavelength of 425 nm. The identification of the glycan structures was performed by MS using positive electro spray ionization (ESI), which was calibrated every 30 s with a standard.\n(§2) Four different clones of Chinese hamster ovary (CHO) cells expressing three different monoclonal antibodies (mAb) and a fusion protein were tested. Cells were cultivated in spin tubes between 14 and 20 days at 37° C., 5% CO2, and 80% humidity. As starting cell density, 3×10^5 cells/mL in 30 mL Cellvento®4CHO media (pH 7.0±0.1) was used for clone 1 and 2 producing mAb1 and mAb2, respectively (Cellvento® Platform). Cells were cultivated at an agitation of 320 rpm and were fed on day 3, 5, 10, 12 and 14 with 3% volume of Cellvento® 4Feed (v/v) and on day 7 with 6% (v/v) of the feed. Clone 3 and 4 producing mAb3 and a fusion protein were inoculated at the same cell density in 30 mL Ex-Cell® Advanced Media (pH 7.2±0.1) while agitation was set to 230 rpm (Ex-Cell® Platform). Clones 3 and 4 were fed with […] Advanced Feed (v/v) on day 3, 5, 7, 10, 12, 14 and 17. […] The pH of all Cellvento® feeds was adjusted to 7.0±0.1 and Ex-Cell® Feeds were adjusted to 8.5±0.1. The glucose level was maintained above 4 g/L by adding a specific amount of a 400 g/L glucose stock solution on demand to up to 6 g/L during the week and up to 13 g/L over the weekend. Glucose and titer were detected in the supernatant with the bioprocess analyzer CEDEX Bio HT (Roche, Mannheim, Germany).\n(§3) To investigate the glycosylation profile during the fed-batch experiment samples were centrifugated and antibodies and Fc-fusion proteins were purified from the cell culture supernatant using protein A PhyTips® (PhyNexus Inc, San Jose, Calif.). Glycosylation patterns were analyzed as described by ultra-performance liquid chromatography coupled to a mass spectrometer (UPLC-MS) using the GlycoWorks™ RapiFluor-MS™ N-Glycan Kit.\n(§4) Glycosylation profile on day 12 was visualized since harvest of recombinant produced proteins on day 12 is common. Quantification of the glycans was obtained using the relative peak area of the fluorescence signal. Almost all peaks were assigned to glycan structures according to their mass. Unknown glycan structures and signals without mass detection were summarized as unknown species (not shown). Four different clones of Chinese hamster ovary (CHO) cells expressing three different monoclonal antibodies (mAb) and a fusion protein were tested. […] The known positive control achieved a 14% fucosylation level on day 12 by increasing the afucosylation to 78%. The same amount of afucosylation compared to the known fucose-analogue acetylated 2F-Fucose was only achieved by clone 3 expressing mAb3 leading to about 34% afucosylation on day 12 (FIG. 8 C)."}, "[2]": {"tested_on": "CHO cell line producing mAb1", "assay": "Glycosylation profile (UPLC-MS of released glycans) of mAb1 from fed-batch", "conditions": "for reduction of the fucosylation compared to the control: mAb1, same concentration of both additives", "experimental": "as §1, §2, §3\nas §4, with “C). […]” for “C).”"}, "[3]": {"tested_on": "CHO cell line producing mAb3", "assay": "Glycosylation profile (UPLC-MS of released glycans) of mAb3 from fed-batch", "experimental": "as §1, §2, §3\nas §4, with “C). […]” for “C).”"}, "[4]": {"conditions": "mAb3, 400 μM additive, day 12, listed as ThioFuc"}, "[5]": {"conditions": "mAb3, 800 μM additive, day 12, listed as ThioFuc"}}, "data": [{"smiles": "C[C@@H]1SC(O)[C@@H](O)[C@H](O)[C@@H]1O", "note": "(stereo partly drawn)", "values": [{"measurement": "afucosylation", "setting": "[1]", "value": 52, "unit": "%"}, {"measurement": "incorporation of fucose analogue (% of the glycans)", "setting": "[1]", "value": 39, "unit": "%"}, {"measurement": "reduction of core-fucosylation compared to the control", "setting": "[1]", "value": "about 63%"}, {"measurement": "core-fucosylated glycans", "setting": "[2]; mAb1, 400 μM additive, day 12", "value": "about 26%"}, {"measurement": "reduction of the fucosylation compared to the control", "setting": "[2]; day 7", "value": 64, "unit": "%"}, {"measurement": "reduction of the fucosylation compared to the control", "setting": "[2]; day 10", "value": 68, "unit": "%"}, {"measurement": "reduction of the fucosylation compared to the control", "setting": "[2]; day 12", "value": 67, "unit": "%"}, {"measurement": "% Afucosylated", "setting": "[3]; mAb3, 50 μM additive, day 5", "value": 17.7, "unit": "%"}, {"measurement": "% Fucosylated", "setting": "[3]; mAb3, 50 μM additive, day 5", "value": 81.4, "unit": "%"}, {"measurement": "% fucose analogue (incorporated)", "setting": "[3]; mAb3, 50 μM additive, day 5", "value": 0.38, "unit": "%"}, {"measurement": "% Afucosylated", "setting": "[3]; mAb3, 50 μM additive, day 12", "value": 16.0, "unit": "%"}, {"measurement": "% Fucosylated", "setting": "[3]; mAb3, 50 μM additive, day 12", "value": 72.5, "unit": "%"}, {"measurement": "% fucose analogue (incorporated)", "setting": "[3]; mAb3, 50 μM additive, day 12", "value": "~11", "unit": "%"}, {"measurement": "% fucose analogue (incorporated)", "setting": "[3]; mAb3, 50 μM additive, day 12, listed as ThioFuc", "value": 10.7, "unit": "%"}, {"measurement": "% Afucosylated", "setting": "[3]; mAb3, 50 μM additive, day 14", "value": 16.1, "unit": "%"}, {"measurement": "% Fucosylated", "setting": "[3]; mAb3, 50 μM additive, day 14", "value": 69.9, "unit": "%"}, {"measurement": "% fucose analogue (incorporated)", "setting": "[3]; mAb3, 50 μM additive, day 14", "value": 13.6, "unit": "%"}, {"measurement": "% Afucosylated", "setting": "[3]; mAb3, 200 μM additive, day 5", "value": 22.1, "unit": "%"}, {"measurement": "% Fucosylated", "setting": "[3]; mAb3, 200 μM additive, day 5", "value": 62.9, "unit": "%"}, {"measurement": "% fucose analogue (incorporated)", "setting": "[3]; mAb3, 200 μM additive, day 5", "value": 14.5, "unit": "%"}, {"measurement": "% Afucosylated", "setting": "[3]; mAb3, 200 μM additive, day 12", "value": 30.1, "unit": "%"}, {"measurement": "% Fucosylated", "setting": "[3]; mAb3, 200 μM additive, day 12", "value": 33.3, "unit": "%"}, {"measurement": "% fucose analogue (incorporated)", "setting": "[3]; mAb3, 200 μM additive, day 12", "value": "~36", "unit": "%"}, {"measurement": "% fucose analogue (incorporated)", "setting": "[3]; mAb3, 200 μM additive, day 12, listed as ThioFuc", "value": 35.9, "unit": "%"}, {"measurement": "% Afucosylated", "setting": "[3]; mAb3, 200 μM additive, day 14", "value": 32.1, "unit": "%"}, {"measurement": "% Fucosylated", "setting": "[3]; mAb3, 200 μM additive, day 14", "value": 28.6, "unit": "%"}, {"measurement": "% fucose analogue (incorporated)", "setting": "[3]; mAb3, 200 μM additive, day 14", "value": 39.1, "unit": "%"}, {"measurement": "% Afucosylated", "setting": "[3]; mAb3, 400 μM additive, day 5", "value": 28.7, "unit": "%"}, {"measurement": "% Fucosylated", "setting": "[3]; mAb3, 400 μM additive, day 5", "value": "about 48%"}, {"measurement": "% fucose analogue (incorporated)", "setting": "[3]; mAb3, 400 μM additive, day 5", "value": 26.5, "unit": "%"}, {"measurement": "% Fucosylated", "setting": "[3]; mAb3, 400 μM additive, day 5, listed as ThioFuc", "value": 46.4, "unit": "%"}, {"measurement": "fucosylation level", "setting": "[3]; mAb3, 400 μM additive, day 7", "value": "about 34%"}, {"measurement": "fucosylation level", "setting": "[3]; mAb3, 400 μM additive, day 10", "value": "~25", "unit": "%"}, {"measurement": "% Fucosylated", "setting": "[3]; mAb3, 400 μM additive, day 12", "value": 21, "unit": "%"}, {"measurement": "% Afucosylated", "setting": "[3]; [4]", "value": 34.8, "unit": "%"}, {"measurement": "% Fucosylated", "setting": "[3]; [4]", "value": 20.9, "unit": "%"}, {"measurement": "% fucose analogue (incorporated)", "setting": "[3]; [4]", "value": 44.1, "unit": "%"}, {"measurement": "% Afucosylated", "setting": "[3]; mAb3, 400 μM additive, day 14", "value": 36.0, "unit": "%"}, {"measurement": "% Fucosylated", "setting": "[3]; mAb3, 400 μM additive, day 14", "value": "~18", "unit": "%"}, {"measurement": "% fucose analogue (incorporated)", "setting": "[3]; mAb3, 400 μM additive, day 14", "value": 46.2, "unit": "%"}, {"measurement": "% Fucosylated", "setting": "[3]; mAb3, 400 μM additive, day 14, listed as ThioFuc", "value": 17.7, "unit": "%"}, {"measurement": "% Afucosylated", "setting": "[3]; mAb3, 800 μM additive, day 5", "value": 32.3, "unit": "%"}, {"measurement": "% Fucosylated", "setting": "[3]; mAb3, 800 μM additive, day 5", "value": 40.4, "unit": "%"}, {"measurement": "% fucose analogue (incorporated)", "setting": "[3]; mAb3, 800 μM additive, day 5", "value": 31.7, "unit": "%"}, {"measurement": "% Afucosylated", "setting": "[3]; mAb3, 800 μM additive, day 12", "value": "about 36%"}, {"measurement": "% Fucosylated", "setting": "[3]; mAb3, 800 μM additive, day 12", "value": "about 15%"}, {"measurement": "% fucose analogue (incorporated)", "setting": "[3]; mAb3, 800 μM additive, day 12", "value": "about 48%"}, {"measurement": "reduction of fucosylation compared to the control", "setting": "[3]; mAb3, 800 μM additive, day 12", "value": "about 75%"}, {"measurement": "% Afucosylated", "setting": "[3]; [5]", "value": 36.4, "unit": "%"}, {"measurement": "% Fucosylated", "setting": "[3]; [5]", "value": 15.4, "unit": "%"}, {"measurement": "% fucose analogue (incorporated)", "setting": "[3]; [5]", "value": 47.8, "unit": "%"}, {"measurement": "% Afucosylated", "setting": "[3]; mAb3, 800 μM additive, day 14", "value": 38.0, "unit": "%"}, {"measurement": "% Fucosylated", "setting": "[3]; mAb3, 800 μM additive, day 14", "value": 12.5, "unit": "%"}, {"measurement": "% fucose analogue (incorporated)", "setting": "[3]; mAb3, 800 μM additive, day 14", "value": 49.3, "unit": "%"}]}]}
